Results as given in article PMC9080489, “Synthesis and biological evaluation of 2-aryl-benzimidazole derivatives of dehydroabietic acid as novel tubulin polymerization inhibitors” (RSC Advances, 2018).

Key:
Porcine brain tubulin = target: T1, Porcine brain tubulin (Sus scrofa, UniProt P02550+P02554); experiment: In vitro tubulin polymerization inhibition assay (OD340); format: biochemical; settings: 37 °C, 1 h, versus blank control
T1 construct: purchased Cytoskeleton, Inc. BK004P; host or cells: porcine brain tissue
Experimental: The in vitro tubulin polymerization inhibition assay was carried out by using the Tubulin Polymerization Assay Kit (Cytoskeleton, Inc., USA) according to the protocol in the manual. Porcine brain tubulin was incubated with compound 6j at concentrations of 5 and 10 μM. The positive control colchicine and negative control taxol were co-assayed at the concentration of 10 μM, and G-PEM buffer was used as the blank control.
The tubulin polymerization assay was accomplished using a commercial assay kit (cat. #BK004P) purchased from Cytoskeleton, Inc. (Danvers, MA, USA). Tubulin isolated from porcine brain tissue was used in this tubulin polymerization assay kit. Tubulin polymerizations are followed by an increase in optical density at 340 nm (OD340) over a 60 min period at 37 °C due to the light scattered by microtubule polymer. At first, tubulin (4 mg) was disovled in 1 mL of G-PEM buffer containing 80 mM piperazine-N,N′-bis(2-ethanesulfonic acid) sequisodium salt (PIPES, pH 6.9), 2.0 mM MgCl2, 0.5 mM EGTA and 1 mM GTP to prepare tubulin solution. Subsequently, 10 μL of 10 × stock solutions of the tested compounds at different concentrations were added to a prewarmed 96-well plate and incubated at 37 °C for 2 min, then 90 μL of tubulin solution was also added into each well to initiate the reaction. The optical intensity (OD340) of each well was recorded every 60 s for 60 min (Cytation 3 Cell Imaging Multi-Mode Reader, BioTek Instruments, Inc., USA). Colchicine and taxol were co-assayed as the positive control and negative control, respectively. G-PEM buffer was used as the blank control.

[1] = test system: human normal hepatocyte cell line (QSG-7701); experiment: MTT cytotoxic assay, QSG-7701; format: cell-based; settings: QSG7701, 48 h exposure
Experimental: The in vitro antiproliferative activity of DAA derivatives (1–5, 6a–k, 7a–k) were evaluated by MTT assay against human hepatocarcinoma cell line (SMMC-7721), human breast cancer cell line (MDA-MB-231), human cervical carcinoma cell line (HeLa), mouse colon cancer cell line (CT-26) and human normal hepatocyte cell line (QSG-7701). Nocodazole was co-assayed as the positive control and DMEM culture medium containing 0.1% DMSO was used as negative control. The results of the tested compounds expressed as IC50 values (concentration required to inhibit tumor cell proliferation by 50%) were presented in Table 1.
The human hepatocarcinoma cell line (SMMC-7721), human breast cancer cell line (MDA-MB-231), human cervical carcinoma cell line (HeLa), mouse colon cancer cell line (CT-26) and human normal hepatocyte cells (QSG-7701) used in this study were all obtained from Keygene Biotech., China. These cell lines were maintained in DMEM medium supplemented with 10% heat-inactivated fetal bovine serum in a humidified atmosphere of 5% CO2 at 37 °C.
The in vitro cytotoxic activities of the benzimidazole derivatives of dehydroabietic acid were evaluated against tested cell lines via the MTT colorimetric method. Briefly, different tumor cells were grown in DMEM medium supplemented with 10% fetal bovine serum, penicillin (100 U mL^−1), and streptomycin (50 μg mL^−1). Cells were harvested at log phase of growth and seeded in 96-well plates (100 μL per well at a density of 2 × 10^5 cells mL^−1). After 24 h incubation at 37 °C and 5% CO2 to allow cell attachment, cultures were exposed to various concentrations of the isolated compounds for 48 h. Finally, MTT solution (2.5 mg mL^−1 in PBS) was added (40 μL per well). Plates were further incubated for 4 h at 37 °C, and the formazan crystals formed were dissolved by adding 150 μL per well of DMSO. Absorption at 570 nm was measured with an ELISA plate reader. The results were expressed as IC50 values with standard deviations, which was defined as the concentration at which 50% survival of cells was discerned. Nocodazole was co-assayed as positive control.

SMMC-7721 cells [2] = experiment: ROS generation assay (DCFH-DA); format: cell-based, human; settings: 0.2, 0.5, 1 and 2 μM, 24 h
Experimental: Reactive oxygen species (ROS) are highly harmful elements to cells as they exert oxidative stress and finally cause cellular damage. Excessive ROS generation renders cells vulnerable to apoptosis.[39] To determine whether compound 6j triggers ROS generation in SMMC-7721 cells to induce apoptosis, the cells were treated with different concentrations (0, 0.2, 0.5, 1 and 2 μM) of compound 6j for 24 h, and the ROS generation was evaluated using the fluorescent probe 2,7-dichlorofluorescein diacetate (DCF-DA) by fluorescence microscopy. […] This phenomenon implied that the increment of ROS might play an important role as an early mediator in compound 6j-induced apoptosis.
ROS generation assay was performed by using the reactive oxygen species assay kit (Beyotime Biotech., China). Intracellular ROS generation was tested through dichlorodihydro fluorescein diacetate (DCFH-DA) assay. DCFH-DA is taken up by SMMC-7721 cells, and then activated by esterase-mediated cleavage of acetate to form dichlorodihydro fluorescein (DCFH), which is trapped in the cells. DCFH is converted to fluorescein DCF in the presence of ROS. SMMC-7721 cells were seeded in six-well plates and incubated with different concentrations of compound 6j for 24 h. […] Immediately after light exposure, cell images were acquired through an inverted fluorescence microscope (Olympus 1X71 Inverted System Microscope, Olympus, Japan).

SMMC-7721 cells [3] = experiment: Wound healing assay (cell migration); format: cell-based, human; settings: 0.2 and 0.5 μM, up to 48 h
Description: Metastasis is a multistep process involving cancer cell motility and invasion which represents a key difficulty for cancer therapy. Thus, the inhibition of metastasis is vital for efficient cancer treatment. Microtubule plays an important role in cell motility and migration. As compound 6j inhibits tubulin polymerization, the capacity of migration inhibition was also investigated through wound healing assay.[45] In this assay, standard scratches (wounds) were made in confluent monolayers of SMMC-7721 cells and incubated with different concentrations (0, 0.1, 0.2 and 0.5 μM) of compound 6j. The migration of SMMC-7721 cells was recorded by microscopic observations at 0, 24 and 48 h.
SMMC-7721 cells (5 × 10^5 cells per well) were grown in a 12-well plate for 24 h. Scratches were made in confluent monolayers using 200 μL pipette tip. Then, wounds were washed twice with PBS to remove non-adherent cell debris. The media containing different concentrations (0, 0.1, 0.2 and 0.5 μM) of compound 6j were added to the corresponding wells. Cells which migrated across the wound area were photographed under the phase contrast microscope (Olympus 1X71 Inverted System Microscope, Olympus, Japan) after 24 and 48 h treatment.

T1 sequence (P02554 whole entry): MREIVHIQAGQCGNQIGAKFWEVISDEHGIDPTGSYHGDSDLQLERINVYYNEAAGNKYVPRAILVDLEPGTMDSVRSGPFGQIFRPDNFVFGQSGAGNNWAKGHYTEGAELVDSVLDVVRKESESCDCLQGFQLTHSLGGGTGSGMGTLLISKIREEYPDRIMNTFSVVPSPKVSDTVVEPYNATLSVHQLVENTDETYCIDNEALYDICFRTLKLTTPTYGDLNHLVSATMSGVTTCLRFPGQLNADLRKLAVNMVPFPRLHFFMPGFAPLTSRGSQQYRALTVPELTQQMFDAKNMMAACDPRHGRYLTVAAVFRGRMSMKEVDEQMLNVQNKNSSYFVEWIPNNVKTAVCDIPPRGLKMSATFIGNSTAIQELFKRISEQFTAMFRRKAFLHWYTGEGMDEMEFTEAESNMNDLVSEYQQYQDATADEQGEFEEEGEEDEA
T1 sequence (P02550 whole entry): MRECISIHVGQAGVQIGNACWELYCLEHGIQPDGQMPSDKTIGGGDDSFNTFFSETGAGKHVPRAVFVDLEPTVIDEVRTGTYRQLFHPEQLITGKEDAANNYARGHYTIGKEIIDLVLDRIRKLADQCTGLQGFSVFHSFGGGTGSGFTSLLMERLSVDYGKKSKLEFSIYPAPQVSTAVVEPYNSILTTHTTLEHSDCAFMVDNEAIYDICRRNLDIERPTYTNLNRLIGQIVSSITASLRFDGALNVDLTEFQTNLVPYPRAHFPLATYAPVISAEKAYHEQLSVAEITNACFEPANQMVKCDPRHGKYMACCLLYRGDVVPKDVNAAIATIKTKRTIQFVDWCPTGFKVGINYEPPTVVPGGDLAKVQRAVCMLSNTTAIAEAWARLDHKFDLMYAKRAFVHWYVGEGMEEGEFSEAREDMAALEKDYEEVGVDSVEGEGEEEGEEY

effect on tubulin polymerization speed and final absorbance (OD340) (Porcine brain tubulin; 10 μM): stronger than colchicine
Compound: COC(=O)[C@]1(C)CCC[C@]2(C)c3cc(Br)c4nc(-c5ccc6[nH]ccc6c5)[nH]c4c3CCC12 (some centres unmarked) [Compound 6j, Methyl 2′-(1H-indol-5-yl)-12-bromo-13,14-imidazolyl-deisopropyl-dehydroabietate]
effect on tubulin polymerization speed and final absorbance (OD340) (Porcine brain tubulin; 5 and 10 μM): substantially decreased the polymerization speed and the final absorbance in a dose-dependent manner | IC50 [1]: 5.82 ± 0.38 µM | ROS generation (DCF green fluorescence) (SMMC-7721 cells [2]): significantly induced ROS generation | wound healing (cell migration) (SMMC-7721 cells [3]): healing was strongly suppressed
